Common to all, as to assay: cells
One experiment relates to EPLC-272H. The format is functional, cell-based. The settings on record: Homo sapiens.
The next experiment concerns H-EMC-SS. Type of experiment: functional, cell-based. The settings on record: Homo sapiens.
A further experiment concerns H9. Type of experiment: functional, cell-based. The settings on record: Homo sapiens.
A further experiment concerns HCT-15. Type of experiment: functional, cell-based, Homo sapiens. The settings on record: Homo sapiens, HCT-15.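 Note: cell viability readout, IC50 reflecting suppression of HCT-15 cell growth.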
A further experiment concerns HSC-4. The format is functional, cell-based, Homo sapiens. The settings on record: Homo sapiens, HSC-4.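 Note: growth inhibition of human HSC-4 cells, read out with a cell viability assay.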
The subject of another experiment is HT55. The format is functional, cell-based, Homo sapiens. The settings on record: Homo sapiens, HT55.
The subject of another experiment is HuO9. The format is functional, cell-based, Homo sapiens. The following applies: Homo sapiens, HuO9.
A further experiment relates to Kasumi 1. Type of experiment: functional, cell-based. The settings on record: Homo sapiens.
The next experiment relates to LU-135. The format is functional, cell-based. The settings on record: Homo sapiens.
The test system of another experiment is MEL-JUSO. Type of experiment: functional, cell-based, Homo sapiens. The settings on record: Homo sapiens, MEL-JUSO.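 Note: growth inhibition of human MEL-JUSO cells, read out with a cell viability assay.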
A further experiment deals with MOLT-13. The format is functional, cell-based. The settings on record: Homo sapiens.
Another experiment concerns NCI-H1573. The format is functional, cell-based. The settings on record: Homo sapiens.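 Note: growth inhibition of NCI-H1573 cells, read out with a cell viability assay.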
In the next experiment the test system is NCI-H1703. The format is functional, cell-based, Homo sapiens. The following applies: Homo sapiens, NCI-H1703.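 Note: growth inhibition of NCI-H1703 cells, read out via a cell viability assay.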
For another experiment, the system named is NCI-H2009. The format is functional, cell-based, Homo sapiens. The settings on record: Homo sapiens, NCI-H2009.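 Note: cell viability assay measuring inhibition of NCI-H2009 cell growth.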
Another experiment concerns NCI-H2291. Type of experiment: functional, cell-based. The following applies: Homo sapiens.
In another experiment the test system is OC-314. The format is functional, cell-based. The settings on record: Homo sapiens.
A further experiment deals with SJRH30. The format is functional, cell-based. The settings on record: Homo sapiens.
The subject of a further experiment is SW 1116. Type of experiment: functional, cell-based. The following applies: Homo sapiens.
Another experiment concerns 23132-87. The format is functional, cell-based, Homo sapiens. The settings on record: Homo sapiens.
Another experiment relates to BALL-1. Type of experiment: functional, cell-based. The following applies: Homo sapiens.
Another experiment has as its system TGBC11TKB. Type of experiment: functional, cell-based. The following applies: Homo sapiens.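 Note: growth inhibition of human TGBC11TKB cells, measured by a cell viability assay.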
For the next experiment, the system named is TI-73. Type of experiment: functional, cell-based. The settings on record: Homo sapiens.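 Note: cell viability assay measuring how much compounds suppress growth of the cultured cell line.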
The subject of a further experiment is YH-13. The format is functional, cell-based. The following applies: Homo sapiens.
For another experiment, the system named is CFPAC-1. Type of experiment: functional, cell-based. The following applies: Homo sapiens.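 Note: cell viability readout used to gauge suppression of CFPAC-1 cell proliferation.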

pIC50: −log10 of the molar value.

Description for 23132-87: SANGER: Inhibition of human 23132-87 cell growth in a cell viability assay.
Description for BALL-1: SANGER: Inhibition of human BALL-1 cell growth in a cell viability assay.
Description for CFPAC-1: SANGER: Inhibition of human CFPAC-1 cell growth in a cell viability assay.
Description for EPLC-272H: SANGER: Inhibition of human EPLC-272H cell growth in a cell viability assay.
Description for H-EMC-SS: SANGER: Inhibition of human H-EMC-SS cell growth in a cell viability assay.
Description for H9: SANGER: Inhibition of human H9 cell growth in a cell viability assay.
Description for HCT-15: SANGER: Inhibition of human HCT-15 cell growth in a cell viability assay.
Description for HSC-4: SANGER: Inhibition of human HSC-4 cell growth in a cell viability assay.
Description for HT55: SANGER: Inhibition of human HT55 cell growth in a cell viability assay.
Description for HuO9: SANGER: Inhibition of human HuO9 cell growth in a cell viability assay.
Description for Kasumi 1: SANGER: Inhibition of human KASUMI-1 cell growth in a cell viability assay.
Description for LU-135: SANGER: Inhibition of human LU-135 cell growth in a cell viability assay.
Description for MEL-JUSO: SANGER: Inhibition of human MEL-JUSO cell growth in a cell viability assay.
Description for MOLT-13: SANGER: Inhibition of human MOLT-13 cell growth in a cell viability assay.
Description for NCI-H1573: SANGER: Inhibition of human NCI-H1573 cell growth in a cell viability assay.
Description for NCI-H1703: SANGER: Inhibition of human NCI-H1703 cell growth in a cell viability assay.
Description for NCI-H2009: SANGER: Inhibition of human NCI-H2009 cell growth in a cell viability assay.
Description for NCI-H2291: SANGER: Inhibition of human NCI-H2291 cell growth in a cell viability assay.
Description for OC-314: SANGER: Inhibition of human OC-314 cell growth in a cell viability assay.
Description for SJRH30: SANGER: Inhibition of human SJRH30 cell growth in a cell viability assay.
Description for SW 1116: SANGER: Inhibition of human SW1116 cell growth in a cell viability assay.
Description for TGBC11TKB: SANGER: Inhibition of human TGBC11TKB cell growth in a cell viability assay.
Description for TI-73: SANGER: Inhibition of human TI-73 cell growth in a cell viability assay.
Description for YH-13: SANGER: Inhibition of human YH-13 cell growth in a cell viability assay.

`CN(C)C/C=C/C(=O)Nc1cc2c(Nc3ccc(F)c(Cl)c3)ncnc2cc1O[C@H]1CCOC1` [AFATINIB]: the negative logarithm of the IC50 (pIC50) was less than 6.30 in the experiment with EPLC-272H; less than 6.30 in the experiment on H-EMC-SS; 7.15 with H9; less than 6.30 with HCT-15; 7.76 in the experiment with HSC-4; less than 6.30 in the experiment on HT55. For the same compound, the pIC50 in the experiment on HuO9 is less than 6.30; in the experiment with Kasumi 1, 8.04; with LU-135 it was less than 6.30; in the experiment with MEL-JUSO it was less than 6.30; in the experiment on MOLT-13, 6.62; in the experiment with NCI-H1573 it was less than 6.30. Moreover, the negative-log IC50 (pIC50) in the experiment on NCI-H1703, in the experiment on NCI-H2009, with NCI-H2291, in the experiment on OC-314, with SJRH30 and in the experiment on SW 1116 was less than 6.30 in each case. Besides, the pIC50 was 6.50 with 23132-87; less than 6.30 in the experiment on BALL-1; less than 6.30 with TGBC11TKB; 6.83 in the experiment with TI-73; less than 6.30 with YH-13; less than 6.30 in the experiment with CFPAC-1.

Regarding `Nc1ccn([C@@H]2O[C@H](CO)[C@@H](O)[C@@H]2O)c(=O)n1` [CYTARABINE], the pIC50 is 5.84 in the experiment on EPLC-272H; 6.84 in the experiment with H-EMC-SS; 6.41 in the experiment on H9; less than 5.70 with HCT-15; 6.33 with HSC-4; less than 5.70 in the experiment with HT55. The negative logarithm of the IC50 (pIC50) in the experiment on HuO9 was less than 5.70; in the experiment on Kasumi 1, less than 5.70; in the experiment on LU-135, less than 5.70; in the experiment with MEL-JUSO, 7.07; in the experiment on MOLT-13, less than 5.70; in the experiment with NCI-H1573, less than 5.70. Also, the negative-log IC50 (pIC50) in the experiment with NCI-H1703 was 7.30; in the experiment with NCI-H2009 it was less than 5.70; in the experiment on NCI-H2291, less than 5.70; in the experiment on OC-314, 6.40; with SJRH30 it was 6.17; in the experiment on SW 1116, less than 5.70. Also, the pIC50 in the experiment on 23132-87 was 6.50; in the experiment with BALL-1 it was less than 5.70; in the experiment on TGBC11TKB, 5.76; with TI-73, 6.21; with YH-13, 6.48; with CFPAC-1, 5.98.

What is called pIC50 is the IC50 on a negative log10 scale, so that one unit is a factor of ten. High values mean a small IC50, low ones a large IC50.

The values above are taken from ChEMBL document CHEMBL1201861, “Genomics of Drug Sensitity in Cancer screening data, Wellcome Trust Sanger Institute”.
